The subject of data set [1] is M. smegmatis mc^2155 (ATCC 700084). Briefly: Broth microdilution determination of minimum inhibitory concentrations. The format is cell-based, Mycobacterium smegmatis. (In broth dilution the organism is exposed to a series of concentrations in liquid medium.)
The nature of data set [2]: in vitro. The following applies: male, CD-1, mouse, microsomes, pH 7.4.
Data set [3] can be described thus: in vitro. As to conditions: mouse, plasma, pH 7.4.
In data set [4] the test system is M. smegmatis biofilms. Put plainly: Biofilm inhibition assay. Type of data set: cell-based, Mycobacterium smegmatis.
A short description of data set [5]: Microsome stability assay. The following applies: male, CD-1, mouse, microsomes, pH 7.4.
The test system of data set [6] is M. smegmatis biofilms. Briefly: Synergy dispersion assay of compound with INH/RIF on pre-formed biofilms. Type of data set: cell-based, Mycobacterium smegmatis. The following applies: INH 256 + RIF 128 µg mL^−1.
The mark [7] stands for this setting: Table 3, trifluoromethyl 2-AIs, no unit printed for these values.

The record followed here is PMC6682311 (ChemMedChem, 2019).

Structures are written as SMILES.

The molecule `CCCOc1ccc(-c2nc(N)[nH]c2C(F)(F)F)cc1` [Compound 12h, 4-(4-Propoxyphenyl)-5-(trifluoromethyl)-1H-imidazol-2-amine] displayed an MIC in data set [1] (setting [7]) of 200.

As usually defined, the half-life is the time in which the quantity being followed falls by half. As for `CCOc1ccc(NC(C)=O)cc1` [Phenacetin], the half-life at 100 µM in “in vitro [2]” worked out at 0.59 h.

With `CC(C)NCC(O)COc1cccc2ccccc12` (centres unmarked) [Propanolol, reference compound], the half-life at 100 µM in the data set “in vitro [3]” was found to be 0.343 h.

One may read the IC50 as the point on the concentration scale where inhibition reaches its midpoint. With `CCCCCOc1ccc(-c2nc(N)[nH]c2C(F)(F)F)cc1` [Compound 12j, 4-(4-(Pentyloxy)phenyl)-5-(trifluoromethyl)-1H-imidazol-2-amine], the MIC in data set [1] (setting [7]) amounted to 200. In the data set on M. smegmatis biofilms [4] (Table 3), this molecule displayed a concentration for half-maximal inhibition (IC50) of 7.4 ± 0.6 µM. Further, the half-life at 100 µM in data set [5] stood at 1.02 h; in the data set “in vitro [3]”, 4.8 h. Further, the “fold reduction in EC50 with antibiotics versus compound alone” value with M. smegmatis biofilms [6] is given as “four-fold reduction”.

`CCCCOc1ccc(-c2nc(N)[nH]c2C(F)(F)F)cc1` [Compound 12i, 4-(4-Butoxyphenyl)-5-(trifluoromethyl)-1H-imidazol-2-amine]: the MIC in data set [1] (setting [7]) worked out at 200.

Turning to `CCCCCCc1ccc(-c2nc(N)[nH]c2C(F)(F)F)cc1` [Compound 12g, 4-(4-Hexylphenyl)-5-(trifluoromethyl)-1H-imidazol-2-amine], the MIC in data set [1] (Table 2, 4,5 substituted 2-AIs, unit printed in text b20 only) is above 200 µM. In the data set with M. smegmatis biofilms [4] (Table 2, highest concentration tested 50 µM), the IC50 worked out at 6.8 ± 0.9 µM. Also, the half-life at 100 µM in data set [5] is 0.978 h; in “in vitro [3]” it was 4.43 h. Further, the “fold reduction in EC50 with antibiotics versus compound alone” value with M. smegmatis biofilms [6] is recorded as “three-fold reduction”.
